Earlier results, collected in PubChem BioAssay AID1259409 (Chemical Carcinogenesis Research Information System (CCRIS), 2018).

Tested on: rodent chemically induced tumor inhibition, incidence and multiplicity
Assay: CCRIS tumor inhibitor studies
Conditions: Route [Inhibitor]: ORAL, Promoter: NONE USED

CCNC(=O)/C=C(C)/C=C/C=C(C)/C=C/C1=C(C)CCCC1(C)C
tumour outcome (control, treated, inhibition, significance) (Carcinogen: 1,2-DIMETHYLHYDRAZINE, 540-73-8, Dose [Inhibitor]: 2 MMOL/KG DIET DAILY STARTING 12 D AFTER CARCINOGEN TREATMENT THROUGH ABOUT 8 MO AFTER CARCINOGEN DOSE (STUDY DURATION:, Species: RAT, Strain/Sex: F344/MALE, Target Tissue: Type of Lesion: COLON: ADENOCARCINOMA, Dose [Carcinogen]: 150 MG/KG BW ONCE): 10/39 (26%), 6/30 (20%), 23%, not significant
tumour outcome (control, treated, inhibition, significance) (Carcinogen: 1,2-DIMETHYLHYDRAZINE, 540-73-8, Dose [Inhibitor]: 2 MMOL/KG DIET DAILY STARTING 12 D AFTER CARCINOGEN TREATMENT THROUGH ABOUT 8 MO AFTER CARCINOGEN DOSE (STUDY DURATION:, Species: RAT, Strain/Sex: F344/MALE, Target Tissue: Type of Lesion: COLON: ADENOMA, Dose [Carcinogen]: 150 MG/KG BW ONCE): 23/39 (59%), 15/30 (50%), 15%, not significant
tumour outcome (control, treated, inhibition, significance) (Carcinogen: N-(4-(5-NITRO-2-FURYL)-2-THIAZOLYL)FORMAMIDE, 24554-26-5, Dose [Inhibitor]: 327 MG/KG DIET DAILY FOR 39 WK STARTING ONE WK FOLLOWING THE TERMINATION OF CARCINOGEN ADMINISTRATION (STUDY DURATION: 5, Species: RAT, Strain/Sex: F344/FEMALE, Target Tissue: Type of Lesion: URINARY BLADDER: CARCINOMA, Dose [Carcinogen]: 2 G/KG IN DIET DAILY FOR 10 WK): 105/200 (53%), 63/100 (63%), -19%, p 0.0843
tumour outcome (control, treated, inhibition, significance) (Carcinogen: N-(4-(5-NITRO-2-FURYL)-2-THIAZOLYL)FORMAMIDE, 24554-26-5, Dose [Inhibitor]: 327 MG/KG DIET DAILY FOR 39 WK STARTING ONE WK FOLLOWING THE TERMINATION OF CARCINOGEN ADMINISTRATION (STUDY DURATION: 5, Species: RAT, Strain/Sex: F344/FEMALE, Target Tissue: Type of Lesion: URINARY BLADDER: PAPILLOMA, Dose [Carcinogen]: 2 G/KG IN DIET DAILY FOR 10 WK): 15/200 (8%), 1/100 (1%), 88%, p 0.0182
tumour outcome (control, treated, inhibition, significance) (Carcinogen: N-(4-(5-NITRO-2-FURYL)-2-THIAZOLYL)FORMAMIDE, 24554-26-5, Dose [Inhibitor]: 327 MG/KG/D IN DIET FOR 39 WK STARTING 1 WK POST CARCINOGEN DOSE TREATMENT (STUDY DURATION: 50 WK), Species: RAT, Strain/Sex: F344/FEMALE, Target Tissue: Type of Lesion: URINARY BLADDER: PAPILLOMA, Dose [Carcinogen]: 2 G/KG/D IN DIET FOR 10 WK): 15/200 (8%), 1/100 (1%), 87%, p=0.0182
tumour outcome (control, treated, inhibition, significance) (Carcinogen: N-(4-(5-NITRO-2-FURYL)-2-THIAZOLYL)FORMAMIDE, 24554-26-5, Dose [Inhibitor]: 327 MG/KG/D IN DIET FOR 39 WK STARTING 1 WK POST CARCINOGEN TREATMENT (STUDY DURATION: 50 WK), Species: RAT, Strain/Sex: F344/FEMALE, Target Tissue: Type of Lesion: URINARY BLADDER: CARCINOMA, Dose [Carcinogen]: 2 G/KG/D IN DIET FOR 10 WK): 105/200 (53%), 63/100 (63%), -19%, p=0.0843
tumour outcome (control, treated, inhibition, significance) (Carcinogen: N-(4-(5-NITRO-2-FURYL)-2-THIAZOLYL)FORMAMIDE, 24554-26-5, Dose [Inhibitor]: 654 MG/KG DIET DAILY FOR 39 WK STARTING ONE WK FOLLOWING THE TERMINATION OF CARCINOGEN ADMINISTRATION (STUDY DURATION: 5, Species: RAT, Strain/Sex: F344/FEMALE, Target Tissue: Type of Lesion: URINARY BLADDER: CARCINOMA, Dose [Carcinogen]: 2 G/KG IN DIET DAILY FOR 10 WK): 105/200 (53%), 78/100 (78%), -47%, p 0.00002
tumour outcome (control, treated, inhibition, significance) (Carcinogen: N-(4-(5-NITRO-2-FURYL)-2-THIAZOLYL)FORMAMIDE, 24554-26-5, Dose [Inhibitor]: 654 MG/KG DIET DAILY FOR 39 WK STARTING ONE WK FOLLOWING THE TERMINATION OF CARCINOGEN ADMINISTRATION (STUDY DURATION: 5, Species: RAT, Strain/Sex: F344/FEMALE, Target Tissue: Type of Lesion: URINARY BLADDER: PAPILLOMA, Dose [Carcinogen]: 2 G/KG IN DIET DAILY FOR 10 WK): 15/200 (8%), 12/100 (12%), -50%, p 0.1989
tumour outcome (control, treated, inhibition, significance) (Carcinogen: N-(4-(5-NITRO-2-FURYL)-2-THIAZOLYL)FORMAMIDE, 24554-26-5, Dose [Inhibitor]: 654 MG/KG IN DIET FOR 39 WK STARTING 1 WK POST CARCINOGEN TREATMENT (STUDY DURATION: 50 WK), Species: RAT, Strain/Sex: F344/FEMALE, Target Tissue: Type of Lesion: URINARY BLADDER: PAPILLOMA, Dose [Carcinogen]: 2 G/KG/D IN DIET FOR 10 WK): 15/200 (7.5%), 12/100 (12%), -60%, p=0.1989
tumour outcome (control, treated, inhibition, significance) (Carcinogen: N-(4-(5-NITRO-2-FURYL)-2-THIAZOLYL)FORMAMIDE, 24554-26-5, Dose [Inhibitor]: 654 MG/KG/D IN DIET FOR 39 WK STARTING 1 WK POST CARCINOGEN TREATMENT (STUDY DURATION: 50 WK), Species: RAT, Strain/Sex: F344/FEMALE, Target Tissue: Type of Lesion: URINARY BLADDER: CARCINOMA, Dose [Carcinogen]: 2 G/KG/D IN DIET FOR 10 WK): 105/200 (53%), 78/100 (78%), -47%, p=0.00002
tumour outcome (control, treated, inhibition, significance) (Carcinogen: N-BUTYL-N-(4-HYDROXYBUTYL)NITROSAMINE, 3817-11-6, Dose [Inhibitor]: 0.5 MMOL/KG DIET DAILY FOR 16 WK STARTING 7 D AFTER FINAL CARCINOGEN DOSE (STUDY DURATION: 6 MO), Species: MOUSE, Strain/Sex: B6D2F1/MALE, Target Tissue: Type of Lesion: URINARY BLADDER: CARCINOMA, Dose [Carcinogen]: 5 OR 10 MG 2/WK FOR 9 WK): 36/97 (37%), 25/76 (33%), 11%, not significant
tumour outcome (control, treated, inhibition, significance) (Carcinogen: N-BUTYL-N-(4-HYDROXYBUTYL)NITROSAMINE, 3817-11-6, Dose [Inhibitor]: 1 MMOL/KG DIET DAILY FOR 16 WK STARTING 7 D AFTER FINAL CARCINOGEN DOSE (STUDY DURATION: 6 MO), Species: MOUSE, Strain/Sex: B6D2F1/MALE, Target Tissue: Type of Lesion: URINARY BLADDER: CARCINOMA, Dose [Carcinogen]: 5 OR 10 MG 2/WK FOR 9 WK): 36/97 (37%), 16/75 (21%), 43%, p<0.025
tumour outcome (control, treated, inhibition, significance) (Carcinogen: N-BUTYL-N-(4-HYDROXYBUTYL)NITROSAMINE, 3817-11-6, Dose [Inhibitor]: 1.5 MMOL/KG DIET DAILY FOR 153 D STARTING ONE WK AFTER THE FINAL CARCINOGEN DOSE (STUDY DURATION: 210 D), Species: MOUSE, Strain/Sex: BDF1/MALE, Target Tissue: Type of Lesion: URINARY BLADDER: TRANSITIONAL CELL CARCINOMA, Dose [Carcinogen]: 7.5 MG 1/WK FOR 8 WK): 35/99 (35%), 21/99 (21%), 40%, p<0.05
tumour outcome (control, treated, inhibition, significance) (Carcinogen: N-BUTYL-N-(4-HYDROXYBUTYL)NITROSAMINE, 3817-11-6, Dose [Inhibitor]: 1.5 MMOL/KG IN DIET FOR 153 D STARTING 1 WK AFTER LAST CARCINOGEN DOSE (STUDY DURATION: 210 D), Species: MOUSE, Strain/Sex: DBF1/MALE, Target Tissue: Type of Lesion: URINARY BLADDER: TRANSITIONAL CELL CARCINOMA, Dose [Carcinogen]: 7.5 MG 1/WK FOR 8 WK): 35/99 (35%), 21/99 (21%), 40%, p<0.05
tumour outcome (control, treated, inhibition, significance) (Carcinogen: N-BUTYL-N-(4-HYDROXYBUTYL)NITROSAMINE, 3817-11-6, Dose [Inhibitor]: 2 MMOL/KG DIET DAILY FOR 17 WK STARTING 7 D AFTER FINAL CARCINOGEN DOSE (STUDY DURATION: 6 MO), Species: RAT, Strain/Sex: F344/MALE, Target Tissue: Type of Lesion: URINARY BLADDER: TRANSITIONAL CELL CARCINOMA, Dose [Carcinogen]: 200 MG 2/WK FOR 8 WK): 55/60 (92%), 25/30 (83%), 10%, not significant
tumour outcome (control, treated, inhibition, significance) (Carcinogen: N-BUTYL-N-(4-HYDROXYBUTYL)NITROSAMINE, 3817-11-6, Dose [Inhibitor]: 2 MMOL/KG DIET DAILY FOR 19 WK STARTING 7 D AFTER FINAL CARCINOGEN DOSE (STUDY DURATION: 6 MO), Species: RAT, Strain/Sex: F344/FEMALE, Target Tissue: Type of Lesion: URINARY BLADDER: TRANSITIONAL CELL CARCINOMA, Dose [Carcinogen]: 150 MG 2/WK FOR 6 WK): 28/80 (35%), 5/40 (12%), 66%, p<0.01
tumour outcome (control, treated, inhibition, significance) (Carcinogen: N-METHYL-N-NITROSOUREA, 684-93-5, Dose [Inhibitor]: 2 MMOL/KG DIET DAILY STARTING 12 D AFTER CARCINOGEN TREATMENT THROUGH ABOUT 8 MO AFTER CARCINOGEN DOSE (STUDY DURATION:, Species: RAT, Strain/Sex: F344/MALE, Target Tissue: Type of Lesion: COLON: ADENOCARCINOMA, Dose [Carcinogen]: 2.5 MG 1/WK FOR 2 WK): 5/39 (13%), 9/30 (30%), -131%, not significant
